pIC50: −log10 of the molar value.
System: 935938-334-R-J1-PDC spheroids with HUVEC/MSC, viability
Assay: Anticancer human tumor 935938-334-R-J1-PDC patient-derived small intestine adenocarcinoma cell line growth inhibition [PI3K]
Settings: for pIC50: curve of first compound; for viability, T/C: stronger effect = lower value
Procedure, shortened: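 Tumor cells grown as multi-cell spheroids with HUVEC endothelial cells and MSC fibroblast-like stroma were treated with targeted agents combined with inavolisib, alpelisib, duvelisib or copanlisib. Doses fell in half-log steps from near clinical Cmax, else from 10 microM. Viability was measured.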

[1] = second compound 0.0316 µM, first compound 0.0316 µM
[2] = second compound 0.0316 µM, first compound 0.1 µM
[3] = second compound 0.0316 µM, first compound 0.316 µM
[4] = second compound 0.0316 µM, first compound 1 µM
[5] = second compound 0.0316 µM, first compound 3.16 µM
[6] = second compound 0.0316 µM, first compound 10 µM
[7] = second compound 0.1 µM, first compound 0.0316 µM
[8] = second compound 0.1 µM, first compound 0.1 µM
[9] = second compound 0.1 µM, first compound 0.316 µM
[10] = second compound 0.1 µM, first compound 1 µM
[11] = second compound 0.1 µM, first compound 3.16 µM
[12] = second compound 0.1 µM, first compound 10 µM
[13] = second compound 0.316 µM, first compound 0.0316 µM
[14] = second compound 0.316 µM, first compound 0.1 µM
[15] = second compound 0.316 µM, first compound 0.316 µM
[16] = second compound 0.316 µM, first compound 1 µM
[17] = second compound 0.316 µM, first compound 3.16 µM
[18] = second compound 0.316 µM, first compound 10 µM
[19] = second compound 1 µM, first compound 0.0316 µM
[20] = second compound 1 µM, first compound 0.1 µM
[21] = second compound 1 µM, first compound 0.316 µM
[22] = second compound 1 µM, first compound 1 µM
[23] = second compound 1 µM, first compound 3.16 µM
[24] = second compound 1 µM, first compound 10 µM
[25] = second compound 3.16 µM, first compound 0.0316 µM
[26] = second compound 3.16 µM, first compound 0.1 µM
[27] = second compound 3.16 µM, first compound 0.316 µM
[28] = second compound 3.16 µM, first compound 1 µM
[29] = second compound 3.16 µM, first compound 3.16 µM
[30] = second compound 3.16 µM, first compound 10 µM
[31] = second compound 10 µM, first compound 0.0316 µM
[32] = second compound 10 µM, first compound 0.1 µM
[33] = second compound 10 µM, first compound 0.316 µM
[34] = second compound 10 µM, first compound 1 µM
[35] = second compound 10 µM, first compound 3.16 µM
[36] = second compound 10 µM, first compound 10 µM
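Also: compound exposure lasted seven days before viability was read.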
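For viability, T/C in this document: percent of vehicle DMSO treated spheroid viability so 100% = untreated.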

Compound: CC1(C)CCC(CN2CCN(c3ccc(C(=O)NS(=O)(=O)c4ccc(NCC5CCOCC5)c([N+](=O)[O-])c4)c(Oc4cnc5[nH]ccc5c4)c3)CC2)=C(c2ccc(Cl)cc2)C1 + CC(Nc1ncnc2nc[nH]c12)c1cc2cccc(Cl)c2c(=O)n1-c1ccccc1
- pIC50 (second compound 0.0316 µM): 5.20
- pIC50 (second compound 0.1 µM): 5.18
- pIC50 (second compound 0.316 µM): 5.22
- pIC50 (second compound 1 µM): 5.17
- pIC50 (second compound 3.16 µM): 5.17
- pIC50 (second compound 10 µM): 5.25
- viability, T/C [1]: 98.3%
- viability, T/C [2]: 93.6%
- viability, T/C [3]: 90.8%
- viability, T/C [4]: 88.8%
- viability, T/C [5]: 89%
- viability, T/C [6]: 23.5%
- viability, T/C [7]: 98.2%
- viability, T/C [8]: 104%
- viability, T/C [9]: 94.3%
- viability, T/C [10]: 105%
- viability, T/C [11]: 95.1%
- viability, T/C [12]: 25.2%
- viability, T/C [13]: 104%
- viability, T/C [14]: 98.9%
- viability, T/C [15]: 105%
- viability, T/C [16]: 93.8%
- viability, T/C [17]: 86.7%
- viability, T/C [18]: 22.3%
- viability, T/C [19]: 80.7%
- viability, T/C [20]: 94.1%
- viability, T/C [21]: 69.1%
- viability, T/C [22]: 102%
- viability, T/C [23]: 92.7%
- viability, T/C [24]: 31.2%
- viability, T/C [25]: 92.6%
- viability, T/C [26]: 89.2%
- viability, T/C [27]: 87.1%
- viability, T/C [28]: 93.2%
- viability, T/C [29]: 92.5%
- viability, T/C [30]: 28.4%
- viability, T/C [31]: 81.7%
- viability, T/C [32]: 61.5%
- viability, T/C [33]: 91.2%
- viability, T/C [34]: 86.5%
- viability, T/C [35]: 73.4%
- viability, T/C [36]: 26.1%

Compound: CC(Cn1ccc(-c2ccc(C#N)c(Cl)c2)n1)NC(=O)c1cc(C(C)O)[nH]n1 (stereo unspecified) + Cc1nc(NC(=O)N2CCCC2C(N)=O)sc1-c1ccnc(C(C)(C)C(F)(F)F)c1
- pIC50 (second compound 0.0316 µM): < 5.00
- pIC50 (second compound 0.1 µM): < 5.00
- pIC50 (second compound 0.316 µM): < 5.00
- pIC50 (second compound 1 µM): < 5.00
- pIC50 (second compound 3.16 µM): 6.40
- pIC50 (second compound 10 µM): > 7.50
- viability, T/C [1]: 81.8%
- viability, T/C [2]: 101%
- viability, T/C [3]: 89.8%
- viability, T/C [4]: 91%
- viability, T/C [5]: 104%
- viability, T/C [6]: 78.3%
- viability, T/C [7]: 109%
- viability, T/C [8]: 72.3%
- viability, T/C [9]: 99.4%
- viability, T/C [10]: 77.2%
- viability, T/C [11]: 97.6%
- viability, T/C [12]: 75.6%
- viability, T/C [13]: 81.8%
- viability, T/C [14]: 81.6%
- viability, T/C [15]: 58.5%
- viability, T/C [16]: 82%
- viability, T/C [17]: 75.5%
- viability, T/C [18]: 84.8%
- viability, T/C [19]: 79.2%
- viability, T/C [20]: 79.6%
- viability, T/C [21]: 62.3%
- viability, T/C [22]: 65%
- viability, T/C [23]: 64.6%
- viability, T/C [24]: 47.7%
- viability, T/C [25]: 62.7%
- viability, T/C [26]: 61%
- viability, T/C [27]: 50.3%
- viability, T/C [28]: 44.3%
- viability, T/C [29]: 59.4%
- viability, T/C [30]: 43.9%
- viability, T/C [31]: 46.3%
- viability, T/C [32]: 42.6%
- viability, T/C [33]: 52.3%
- viability, T/C [34]: 51.8%
- viability, T/C [35]: 44.3%
- viability, T/C [36]: 40%

Compound: C=CC(=O)N1CCN(c2nc(=O)n(-c3c(C)ccnc3C(C)C)c3nc(-c4c(O)cccc4F)c(F)cc23)C(C)C1 (stereo unspecified) + Cc1nc(NC(=O)N2CCCC2C(N)=O)sc1-c1ccnc(C(C)(C)C(F)(F)F)c1
- pIC50 (second compound 0.0316 µM): < 5.00
- pIC50 (second compound 0.1 µM): < 5.00
- pIC50 (second compound 0.316 µM): < 5.00
- pIC50 (second compound 1 µM): < 5.00
- pIC50 (second compound 3.16 µM): < 5.00
- pIC50 (second compound 10 µM): > 7.50
- viability, T/C [1]: 73%
- viability, T/C [2]: 92.1%
- viability, T/C [3]: 88%
- viability, T/C [4]: 98.7%
- viability, T/C [5]: 85.7%
- viability, T/C [6]: 86.8%
- viability, T/C [7]: 79.2%
- viability, T/C [8]: 76.2%
- viability, T/C [9]: 91.2%
- viability, T/C [10]: 60.7%
- viability, T/C [11]: 79.5%
- viability, T/C [12]: 95.8%
- viability, T/C [13]: 91%
- viability, T/C [14]: 96%
- viability, T/C [15]: 74.2%
- viability, T/C [16]: 69.5%
- viability, T/C [17]: 72.7%
- viability, T/C [18]: 92.3%
- viability, T/C [19]: 68.4%
- viability, T/C [20]: 64%
- viability, T/C [21]: 60.5%
- viability, T/C [22]: 68.7%
- viability, T/C [23]: 77.3%
- viability, T/C [24]: 47.4%
- viability, T/C [25]: 48.4%
- viability, T/C [26]: 55.1%
- viability, T/C [27]: 45.1%
- viability, T/C [28]: 57.1%
- viability, T/C [29]: 64.7%
- viability, T/C [30]: 42.5%
- viability, T/C [31]: 43.2%
- viability, T/C [32]: 40.1%
- viability, T/C [33]: 47.3%
- viability, T/C [34]: 36.5%
- viability, T/C [35]: 35%
- viability, T/C [36]: 32.2%

Reference: PubChem BioAssay AID1963966 (Molecular Pharmacology Branch, DTP, NCI, 2024)
